According to patent US8076352B2, “Administration of carboline derivatives useful in the treatment of cancer and other diseases” (PTC Therapeutics, Inc., priority 2004, dated 2011):

test system: hypoxia-inducible endogenous VEGF expression in HeLa cells; assay: Hypoxia-inducible endogenous VEGF expression, VEGF ELISA of conditioned media (dose-response EC50); type: cell-based; settings: HeLa cells under hypoxic conditions
Description: The ability of the compounds of the invention to modulate hypoxia-inducible endogenous VEGF expression may be analyzed as follows. VEGF protein levels may be monitored by an ELISA assay (R&D Systems). Briefly, HeLa cells may be cultured for 24-48 hours under hypoxic conditions (1% O2, 5% CO2, balanced with nitrogen) in the presence or absence of a compound of the invention. The conditioned media may then be assayed by ELISA, and the concentration of VEGF calculated from the standard ELISA curve of each assay.
A dose-response analysis may be performed using the ELISA assay and conditions described above. The conditions for the dose-response ELISA are analogous to those described above. A series of, e.g., seven different concentrations may be analyzed. […] Dose-response curves may be plotted using percentage inhibition versus concentration of the compound, and EC50 and CC50 values may be generated for each compound with the maximal inhibition set as 100% and the minimal inhibition as 0%.

| SMILES | EC50 [nM] |
| --- | --- |
| Clc1ccc2[nH]c3c(c2c1)CCN(Cc1ccccc1)C3C1CCOC1 (stereo not shown) [Compound 264] | > 1000 |

same assay, conditions: Homo sapiens, HeLa cells under hypoxic conditions

| SMILES | EC50 [nM] |
| --- | --- |
| Cc1ccc2[nH]c3c(c2c1)CCN(C(=O)Oc1ccc(Cl)cc1)C3c1ccc(C(C)C)cc1 (stereo not shown) [Compound 344] | 8 to 40 |
| Clc1cccc(C2NCCc3c2[nH]c2ccc(Br)cc32)c1Cl (stereo not shown) [Compound 151] | 40 to 200 |
| Fc1ccc(F)c(C2NCCc3c2[nH]c2ccc(Cl)cc32)c1 (stereo not shown) [Compound 194] | 200 to 1000 |
| CCOC(=O)N1CCc2c([nH]c3ccc(Br)cc23)C1c1cc(F)cc(F)c1 (stereo not shown) [Compound 64] | 8 to 40 |
| Clc1ccc2[nH]c3c(c2c1)CCN(Cc1ccoc1)C3c1ccco1 (stereo not shown) [Compound 268] | > 1000 |
| O=C(Oc1ccccc1)N1CCc2c([nH]c3ccc(Br)cc23)C1c1ccccc1 (stereo not shown) [Compound 76] | 8 to 40 |
| CCOC(=O)N1CCc2c([nH]c3ccc(Cl)cc23)C1c1ccccc1OC (stereo not shown) [Compound 169] | 40 to 200 |
| CC(C)(C)OC(=O)N1CCc2c([nH]c3ccc(Cl)cc23)C1c1ccc2c(c1)OCO2 (stereo not shown) [Compound 362] | < 8 |
| COc1ccc2c3c([nH]c2c1)C(c1ccccc1)NCC3 (stereo not shown) [Compound 321] | > 1000 |
| COC(=O)N1CCc2c([nH]c3ccc(Cl)cc23)C1c1ccc(F)cc1 (stereo not shown) [Compound 68] | 8 to 40 |
| CC(C)NC(=S)N1CCc2c([nH]c3ccc(Br)cc23)C1c1ccccc1 (stereo not shown) [Compound 158] | 40 to 200 |
| CCOC(=O)N1CCc2c([nH]c3ccc(Cl)cc23)C1c1cccc(C)c1 (stereo not shown) [Compound 109] | 8 to 40 |
| CC(C)c1ccc(C2NCCc3c2[nH]c2ccc(Cl)cc32)cc1 (stereo not shown) [Compound 162] | 40 to 200 |
| Fc1ccc(C2NCCc3c2[nH]c2ccc(Cl)cc32)c(F)c1 (stereo not shown) [Compound 163] | 40 to 200 |
| CC(=O)N1CCc2c([nH]c3ccc(Br)cc23)C1c1cccc(Cl)c1 (stereo not shown) [Compound 98] | 8 to 40 |
| COc1ccc(C2c3[nH]c4ccc(Cl)cc4c3CCN2C(=O)C(C)OC(C)=O)cc1 (stereo not shown) [Compound 370] | < 8 |
| O=C(Oc1ccc(Cl)cc1)N1CCc2c([nH]c3ccc(Cl)cc23)C1c1ccc(OCCN2CCOCC2)cc1 (stereo not shown) [Compound 331] | > 1000 |
| O=C(NC1CCCCC1)N1CCc2c([nH]c3ccc(Br)cc23)C1c1cccc(Cl)c1 (stereo not shown) [Compound 140] | 40 to 200 |
| Fc1cccc(C2NCCc3c2[nH]c2ccc(Cl)cc32)c1 (stereo not shown) [Compound 203] | 200 to 1000 |
| Clc1ccc(C2NCCc3c2[nH]c2ccc(Cl)cc32)cc1 (stereo not shown) [Compound 190] | 200 to 1000 |

| SMILES | EC50 [nM] |
| --- | --- |
| COc1ccc(C2c3[nH]c4ccc(Cl)cc4c3CCN2C(=O)OC(C)C)cc1 (stereo not shown) [Compound 57] | 8 to 40 |
| COC(=O)N1CCc2c([nH]c3ccc(Cl)cc23)C1c1cccc(C(F)(F)F)c1 (stereo not shown) [Compound 125] | 40 to 200 |
| COc1cccc(C2c3[nH]c4ccc(Cl)cc4c3CCN2C(=O)OCCCl)c1 (stereo not shown) [Compound 117] | 8 to 40 |
| Fc1ccc(C2NCCc3c2[nH]c2ccc(Br)cc32)c(F)c1 (stereo not shown) [Compound 161] | 40 to 200 |
| CCOC(=O)N1CCc2c([nH]c3ccc(Cl)cc23)C1c1cccc(OC)c1 (stereo not shown) [Compound 107] | 8 to 40 |
| COc1ccc(C2c3[nH]c4ccc(C)cc4c3CCN2c2cnccn2)cc1 (stereo not shown) [Compound 343] | > 1000 |
| Cc1ccc2[nH]c3c(c2c1)CCN(c1ncccn1)C3c1ccc(C(C)C)cc1 (stereo not shown) [Compound 345] | 8 to 40 |
| CCOC(=O)N1CCc2c([nH]c3ccc(F)cc23)C1c1ccc(OC)cc1 (stereo not shown) [Compound 191] | 200 to 1000 |
| COc1ccc(C2NCCc3c2[nH]c2ccc(OC)cc32)cc1 (stereo not shown) [Compound 323] | > 1000 |
| CCOC(=O)N1CCc2c([nH]c3ccc(Br)cc23)C1c1cccc(Br)c1 (stereo not shown) [Compound 44] | < 8 |
| O=C(OCCCl)N1CCc2c([nH]c3ccc(Cl)cc23)C1c1cccc(F)c1 (stereo not shown) [Compound 116] | 8 to 40 |
| COc1ccc(C2NCCc3c2[nH]c2ccccc32)cc1 (stereo not shown) [Compound 313] | > 1000 |
| CCCOC(=O)N1CCc2c([nH]c3ccc(Cl)cc23)C1c1ccc(C(F)(F)F)cc1 (stereo not shown) [Compound 19] | < 8 |
| Clc1ccc2[nH]c3c(c2c1)CCN(Cc1ccccc1)C3c1ccc2c(c1)OCO2 (stereo not shown) [Compound 176] | 200 to 1000 |
| COc1ccc(C2c3[nH]c4ccc(F)cc4c3CCN2C(=S)NC2CCCCC2)cc1 (stereo not shown) [Compound 242] | > 1000 |
| COc1ccc(C2NCCc3c2[nH]c2ccc(Cl)cc32)cc1OC (stereo not shown) [Compound 327] | > 1000 |
| CCOC(=O)N1CCc2c([nH]c3ccc(F)cc23)C1c1ccc(Cl)cc1 (stereo not shown) [Compound 229] | > 1000 |
| Clc1ccc2[nH]c3c(c2c1)CCN(Cc1ccco1)C3c1nccs1 (stereo not shown) [Compound 267] | > 1000 |
| Clc1ccc(C2NCCc3c2[nH]c2ccc(Br)cc32)c(Cl)c1 (stereo not shown) [Compound 135] | 40 to 200 |

same assay, conditions: Homo sapiens, HeLa cells, hypoxic conditions (1% O2)

| SMILES | EC50 [nM] |
| --- | --- |
| CCOC(=O)N1CCc2c([nH]c3ccc(Br)cc23)C1c1ccc(C(=O)N(C)C)cc1 (stereo not shown) [Compound 483] | 40 to 200 |
| O=C(Oc1ccc(Cl)cc1)N1CCc2c([nH]c3ccc(Cl)cc23)C1c1ccc(OCCCCCCNCCO)cc1 (stereo not shown) [Compound 782] | < 8 |
| O=C(Oc1ccc(Cl)cc1)N1CCc2c([nH]c3ccc(Cl)cc23)C1c1ccc(OCCCCN2CCCC2)cc1 (stereo not shown) [Compound 698] | 8 to 40 |
| CN1CCN(CCCCCCOc2ccc(C3c4[nH]c5ccc(Cl)cc5c4CCN3C(=O)Oc3ccc(Cl)cc3)cc2)CC1 (stereo not shown) [Compound 788] | 8 to 40 |
| O=C(Oc1ccc(Cl)cc1)N1CCc2c([nH]c3ccc(Cl)cc23)C1c1ccc(OCCCCN2CCOCC2)cc1 (stereo not shown) [Compound 702] | 8 to 40 |
| O=C(Oc1ccc(Cl)cc1)N1CCc2c([nH]c3ccc(Cl)cc23)C1c1ccc(O)cc1 (stereo not shown) [Compound 577] | 40 to 200 |
| O=C(Oc1ccc(F)cc1)N1CCc2c([nH]c3ccc(Cl)cc23)C1c1ccc(OCCCCNCCCn2ccnc2)cc1 (stereo not shown) [Compound 741] | 40 to 200 |
| CCOC(=O)N1CCc2c([nH]c3ccc(Cl)cc23)C1c1cccc(C(=O)NCCOC)c1 (stereo not shown) [Compound 556] | 200 to 1000 |
| CN1CCN(CCCCOc2ccc(C3c4[nH]c5ccc(Cl)cc5c4CCN3C(=O)Oc3ccc(F)cc3)cc2)CC1 (stereo not shown) [Compound 740] | 40 to 200 |
| O=C(Oc1ccc(Cl)cc1)N1CCc2c([nH]c3ccc(Cl)cc23)C1c1ccc(OCCCI)cc1 (stereo not shown) [Compound 617] | 8 to 40 |
| O=C(Oc1ccc(Cl)cc1)N1CCc2c([nH]c3ccc(Cl)cc23)C1c1ccc(OCCCCCCn2cncn2)cc1 (stereo not shown) [Compound 791] | < 8 |
| O=C(O)c1ccc(C2c3[nH]c4ccc(Br)cc4c3CCN2C(=O)Oc2ccc(Cl)cc2)cc1 (stereo not shown) [Compound 519] | 200 to 1000 |
| O=C(CN1CCOCC1)Nc1ccc(C2c3[nH]c4ccc(Cl)cc4c3CCN2C(=O)Oc2ccc(Cl)cc2)cc1 (stereo not shown) [Compound 454] | 8 to 40 |
| CCOC(=O)N1CCc2c([nH]c3ccc(Cl)cc23)C1c1ccc(C(=O)N2CCC(NC(C)=O)C2)cc1 (stereo not shown) [Compound 561] | > 1000 |
| CCOC(=O)N1CCc2c([nH]c3ccc(Br)cc23)C1c1ccc(C(=O)N(C)CCN(C)C)cc1 (stereo not shown) [Compound 516] | 200 to 1000 |
| O=C(Oc1ccc(Cl)cc1)N1CCc2c([nH]c3ccc(Cl)cc23)C1c1ccc(F)cc1 (stereo not shown) [Compound 444] | 8 to 40 |
| CCOC(=O)N1CCc2c([nH]c3ccc(Cl)cc23)C1c1ccc(C(=O)N2CCN(CC)CC2)cc1 (stereo not shown) [Compound 473] | 40 to 200 |
| O=C1NC2CSC(CCCCC(=O)OCCOc3ccc(C4c5[nH]c6ccc(Cl)cc6c5CCN4C(=O)Oc4ccc(Cl)cc4)cc3)C2N1 (stereo not shown) [Compound 544] | < 8 |
| CC(=O)N1CCN(CC(O)COc2ccc(C3c4[nH]c5ccc(Cl)cc5c4CCN3C(=O)Oc3ccc(Cl)cc3)cc2)CC1 (stereo not shown) [Compound 415] | < 8 |
| CCOC(=O)N1CCc2c([nH]c3ccc(Br)cc23)C1c1cnc(N(C)C)nc1 (stereo not shown) [Compound 435] | < 8 |
| CC(C)NCCCCOc1ccc(C2c3[nH]c4ccc(Cl)cc4c3CCN2C(=O)Oc2ccc(Cl)cc2)cc1 (stereo not shown) [Compound 700] | 8 to 40 |
| COc1ccc(C2c3[nH]c4ccc(OCc5ccccc5)cc4c3CCN2C(=O)Oc2ccc(Cl)cc2)cc1 (stereo not shown) [Compound 616] | 200 to 1000 |
| COC(=O)c1ccc(C2c3[nH]c4ccc(Br)cc4c3CCN2C(=O)Oc2ccc(F)cc2)cc1 (stereo not shown) [Compound 592] | < 8 |
| CCOC(=O)N1CCc2c([nH]c3ccc(Cl)cc23)C1C(C)Cc1ccc(C(C)(C)C)cc1 (stereo not shown) [Compound 528] | 200 to 1000 |
| CCOC(=O)N1CCc2c([nH]c3ccc(Cl)cc23)C1c1ccc(C(=O)NCCCn2ccnc2)cc1 (stereo not shown) [Compound 533] | 200 to 1000 |
| O=C(Oc1ccc(Cl)cc1)N1CCc2c([nH]c3ccc(Cl)cc23)C1c1ccc(OCCCN2CCCCC2)cc1 (stereo not shown) [Compound 433] | < 8 |

same assay, conditions: Homo sapiens, HeLa cells, hypoxic conditions (1% O2, 5% CO2)

| SMILES | EC50 [nM] |
| --- | --- |
| COCCN(CCOC)CC(O)COc1ccc(C2c3[nH]c4ccc(Cl)cc4c3CCN2C(=O)Oc2ccc(Cl)cc2)cc1 (stereo not shown) [Compound 918] | < 8 |
| CN1CCN(CC(O)COc2ccc(C3c4[nH]c5ccc(Cl)cc5c4CCN3C(=O)Oc3ccc(Cl)cc3)cc2)CC1 (stereo not shown) [Compound 970] | 8 to 40 |
| CS(=O)(=O)Nc1ccc(C2c3[nH]c4ccc(Cl)cc4c3CCN2C(=O)Oc2ccc(Cl)cc2)cc1 (stereo not shown) [Compound 974] | 40 to 200 |
| O=C(Oc1ccc(Cl)cc1)N1CCc2c([nH]c3ccc(Cl)cc23)C1c1ccc(OCCCCl)cc1 (stereo not shown) [Compound 921] | < 8 |
| CC(C)NCC(O)COc1ccc(C2c3[nH]c4ccc(Cl)cc4c3CCN2C(=O)Oc2ccc(Cl)cc2)cc1 (stereo not shown) [Compound 977] | 40 to 200 |
| O=C(Oc1ccc(Cl)cc1)N1CCc2c([nH]c3ccc(Cl)cc23)C1c1ccc(OCC(O)Cn2cncn2)cc1 (stereo not shown) [Compound 996] | < 8 |
| O=C(Oc1ccc(Cl)cc1)N1CCc2c([nH]c3ccc(Cl)cc23)C1c1ccc(N2CCCC2)cc1 (stereo not shown) [Compound 984] | 200 to 1000 |
